Patent US6914045B2, “Glycopeptide antibiotics” (Wyeth Holdings Corporation, priority 2001, dated 2005)
Converted amounts (≈) assume the structure as drawn.

How the values were obtained:
Escherichia coli = experiment: in vitro antibacterial evaluation, MIC by broth dilution; format: cell-based; settings: 18 hours at 35° C.
Staphylococcus sp. = experiment: as above; format: cell-based; settings: broth dilution, 18 hours at 35° C.
Method in brief: (§1)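 Following National Committee for Clinical Laboratory Standards recommendations (M7-A2), susceptibility was measured by dilution in Muller-Hinton II […]. Bacteria were seeded at 5×10^5 CFU/mL against compound concentrations from 64 down to 0.06 μg/mL.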

Streptococcus sp. = experiment: as above; format: cell-based; settings: broth dilution, 18 hours at 35° C.
Method in brief: as §1

Enterococcus sp. = experiment: as above; format: cell-based; settings: broth dilution, 18 hours at 35° C.
Method in brief: as §1

[1] = test system: Staphylococcus aureus-SMITH (GC 4543); experiment: acute lethal infection in mice; format: in vivo; settings: acute lethal infection, female CD-1 mice, intraperitoneal challenge, intravenous 30 min. after infection, 7 day survival
Method in brief: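 Survival at 7 days, pooled from three independent tests, yields ED50 values. Treatment is intravenous, 30 min after ip infection of female CD-1 mice, using an inoculum lethal to untreated controls within 24-48 hr.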

Compound: CCCOc1ccc(COCC2OC(OC3C(CO)OC(Oc4ccc(CC5NC(=O)C(C(C)c6ccccc6)NC(=O)CNC(=O)C(CO)NC(=O)C(C(O)C6CNC(=N)N6C6OC(CO)C(O)C(O)C6O)NC(=O)C(C(O)C6CNC(=N)N6)NC5=O)cc4)C(O)C3O)C(O)C(O)C2O)cc1 (stereo not drawn) [Example 235, Cyclo[glycyl-β-methylphenylalanyl-O-[4-O-[6-O-(4-propoxybenzyl)hexopyranosyl]hexopyranosyl]tyrosyl-3-(2-iminoimidazolidin-4-yl)seryl-3-(3-hexopyranosyl-2-iminoimidazolidin-4-yl)serylseryl]]
- MIC Escherichia coli (GC 4560) (Escherichia coli): 0.5 to 1 µg/mL
- MIC Coagulase Negative Staphylococcus (GC 4547) (Staphylococcus sp.): 0.5 to 1 µg/mL
- MIC Coagulase Negative Staphylococcus (GC 4548) (Staphylococcus sp.): 0.25 to 0.5 µg/mL
- MIC Coagulase Negative Staphylococcus (GC 4549) (Staphylococcus sp.): 0.25 to 0.5 µg/mL
- MIC Coagulase Negative Staphylococcus (GC 4551) (Staphylococcus sp.): 0.5 to 1 µg/mL
- MIC Coagulase Negative Staphylococcus (GC 6257) (Staphylococcus sp.): 0.25 to 0.5 µg/mL
- MIC Staphylococcus aureus (ATCC 29213) (Staphylococcus sp.): 0.5 to 1 µg/mL
- MIC Staphylococcus aureus (GC 1131) (Staphylococcus sp.): 1 to 2 µg/mL
- MIC Staphylococcus aureus (GC 3051) (Staphylococcus sp.): 0.5 to 2 µg/mL
- MIC Staphylococcus aureus (GC 3053) (Staphylococcus sp.): 1 to 2 µg/mL
- MIC Staphylococcus aureus (GC 4541) (Staphylococcus sp.): 0.5 to 1 µg/mL
- MIC Staphylococcus aureus (GC 4542) (Staphylococcus sp.): 0.5 to 2 µg/mL
- MIC Staphylococcus aureus (GC 4544) (Staphylococcus sp.): 1 to 2 µg/mL
- MIC Staphylococcus aureus (GC 4545) (Staphylococcus sp.): 1 to 2 µg/mL
- MIC Staphylococcus aureus-SMITH (GC 4543) (Staphylococcus sp.): 0.5 to 1 µg/mL
- MIC Staphylococcus haemolyticus (GC 4546) (Staphylococcus sp.): 0.25 to 0.5 µg/mL
- MIC Staphylococcus aureus (ATCC 29213) (Staphylococcus sp.; strain ATCC 29213): 0.5 to 1 µg/mL
- MIC Staphylococcus aureus (GC 1131) (Staphylococcus sp.; strain GC 1131): 1 to 2 µg/mL
- MIC Staphylococcus aureus (GC 3051) (Staphylococcus sp.; strain GC 3051): 0.5 to 2 µg/mL
- MIC Staphylococcus aureus (GC 3053) (Staphylococcus sp.; strain GC 3053): 1 to 2 µg/mL
- MIC Staphylococcus aureus (GC 4541) (Staphylococcus sp.; strain GC 4541): 0.5 to 1 µg/mL
- MIC Staphylococcus aureus (GC 4542) (Staphylococcus sp.; strain GC 4542): 0.5 to 2 µg/mL
- MIC Staphylococcus aureus-SMITH (GC 4543) (Staphylococcus sp.; strain GC 4543): 0.5 to 1 µg/mL
- MIC Staphylococcus aureus (GC 4544) (Staphylococcus sp.; strain GC 4544): 1 to 2 µg/mL
- MIC Staphylococcus aureus (GC 4545) (Staphylococcus sp.; strain GC 4545): 1 to 2 µg/mL
- MIC Staphylococcus haemolyticus (GC 4546) (Staphylococcus sp.; strain GC 4546): 0.25 to 0.5 µg/mL
- MIC Coagulase Negative Staphylococcus (GC 4547) (Staphylococcus sp.; strain GC 4547): 0.5 to 1 µg/mL
- MIC Coagulase Negative Staphylococcus (GC 4548) (Staphylococcus sp.; strain GC 4548): 0.25 to 0.5 µg/mL
- MIC Coagulase Negative Staphylococcus (GC 4549) (Staphylococcus sp.; strain GC 4549): 0.25 to 0.5 µg/mL
- MIC Coagulase Negative Staphylococcus (GC 4551) (Staphylococcus sp.; strain GC 4551): 0.5 to 1 µg/mL
- MIC Coagulase Negative Staphylococcus (GC 6257) (Staphylococcus sp.; strain GC 6257): 0.25 to 0.5 µg/mL
- MIC Streptococcus agalactiae (GC 4564) (Streptococcus sp.): 0.25 to 0.5 µg/mL
- MIC Streptococcus pneumoniae (ATCC 6301) (Streptococcus sp.): 0.12 µg/mL (≈ 0.0831 µM)
- MIC Streptococcus pneumoniae (GC 1894) (Streptococcus sp.): <0.06 µg/mL
- MIC Streptococcus pneumoniae (GC 4565) (Streptococcus sp.): <0.06 to 0.12 µg/mL
- MIC Streptococcus pyogenes (GC 4563) (Streptococcus sp.): 0.25 µg/mL (≈ 0.173 µM)
- MIC Streptococcus pneumoniae (ATCC 6301) (Streptococcus sp.; inoculum 5×10^5 CFU/mL, strain ATCC 6301): 0.12 µg/mL (≈ 0.0831 µM)
- MIC Streptococcus pneumoniae (GC 1894) (Streptococcus sp.; inoculum 5×10^5 CFU/mL, strain GC 1894): <0.06 µg/mL
- MIC Streptococcus pyogenes (GC 4563) (Streptococcus sp.; inoculum 5×10^5 CFU/mL, strain GC 4563): 0.25 µg/mL (≈ 0.173 µM)
- MIC Streptococcus agalactiae (GC 4564) (Streptococcus sp.; inoculum 5×10^5 CFU/mL, strain GC 4564): 0.25 to 0.5 µg/mL
- MIC Streptococcus pneumoniae (GC 4565) (Streptococcus sp.; inoculum 5×10^5 CFU/mL, strain GC 4565): <0.06 to 0.12 µg/mL
- MIC Enterococcus avium (GC 4558) (Enterococcus sp.): 4 µg/mL (≈ 2.77 µM)
- MIC Enterococcus faecalis (ATCC 29212) (Enterococcus sp.): 4 µg/mL (≈ 2.77 µM)
- MIC Enterococcus faecalis (GC 2242) (Enterococcus sp.): 4 µg/mL (≈ 2.77 µM)
- MIC Enterococcus faecalis (GC 2691) (Enterococcus sp.): 4 µg/mL (≈ 2.77 µM)
- MIC Enterococcus faecalis (GC 3059) (Enterococcus sp.): 4 to 8 µg/mL
- MIC Enterococcus faecalis (GC 4552) (Enterococcus sp.): 4 µg/mL (≈ 2.77 µM)
- MIC Enterococcus faecalis (GC 4553) (Enterococcus sp.): 4 µg/mL (≈ 2.77 µM)
- MIC Enterococcus faecalis (GC 4554) (Enterococcus sp.): 4 to 8 µg/mL
- MIC Enterococcus faecalis (GC 6189) (Enterococcus sp.): 4 µg/mL (≈ 2.77 µM)
- MIC Enterococcus faecium (GC 2243) (Enterococcus sp.): 4 µg/mL (≈ 2.77 µM)
- MIC Enterococcus faecium (GC 4556) (Enterococcus sp.): 4 µg/mL (≈ 2.77 µM)
- MIC Enterococcus faecium (GC 4557) (Enterococcus sp.): 0.5 to 2 µg/mL
- MIC Enterococcus faecalis (ATCC 29212) (Enterococcus sp.; strain ATCC 29212): 4 µg/mL (≈ 2.77 µM)
- MIC Enterococcus faecium (GC 2243) (Enterococcus sp.; strain GC 2243): 4 µg/mL (≈ 2.77 µM)
- MIC Enterococcus faecalis (GC 4552) (Enterococcus sp.; strain GC 4552): 4 µg/mL (≈ 2.77 µM)
- MIC Enterococcus faecalis (GC 4553) (Enterococcus sp.; strain GC 4553): 4 µg/mL (≈ 2.77 µM)
- MIC Enterococcus faecalis (GC 4554) (Enterococcus sp.; strain GC 4554): 4 to 8 µg/mL
- MIC Enterococcus faecium (GC 4556) (Enterococcus sp.; strain GC 4556): 4 µg/mL (≈ 2.77 µM)
- MIC Enterococcus faecium (GC 4557) (Enterococcus sp.; strain GC 4557): 0.5 to 2 µg/mL
- MIC Enterococcus avium (GC 4558) (Enterococcus sp.; strain GC 4558): 4 µg/mL (≈ 2.77 µM)
- MIC Enterococcus faecalis (GC 6189) (Enterococcus sp.; strain GC 6189): 4 µg/mL (≈ 2.77 µM)
- MIC Enterococcus faecalis (GC 2242) (Enterococcus sp.; inoculum 5×10^5 CFU/mL, strain GC 2242): 4 µg/mL (≈ 2.77 µM)
- MIC Enterococcus faecalis (GC 2691) (Enterococcus sp.; inoculum 5×10^5 CFU/mL, strain GC 2691): 4 µg/mL (≈ 2.77 µM)
- MIC Enterococcus faecalis (GC 3059) (Enterococcus sp.; inoculum 5×10^5 CFU/mL, strain GC 3059): 4 to 8 µg/mL
- median effective dose (ED50), Staphylococcus aureus-SMITH (GC 4543) [1]: 0.59 mg/kg
